Source: publication PMC11555526, “Development of 2-Aminoadenine-Based Proteolysis-Targeting Chimeras (PROTACs) as Novel Potent Degraders of Monopolar Spindle 1 and Aurora Kinases” (ACS Pharmacology & Translational Science, 2024)

Tests used:
[1] = biological target: T1, TTK (Homo sapiens, UniProt P33981); test: Immunoblot of TTK in naive MV4-11 cells; format: cell-based; parameters: endogenous in cells; host or cells: naive MV4-11; settings: 6 h
T1 sequence (P33981 1-857): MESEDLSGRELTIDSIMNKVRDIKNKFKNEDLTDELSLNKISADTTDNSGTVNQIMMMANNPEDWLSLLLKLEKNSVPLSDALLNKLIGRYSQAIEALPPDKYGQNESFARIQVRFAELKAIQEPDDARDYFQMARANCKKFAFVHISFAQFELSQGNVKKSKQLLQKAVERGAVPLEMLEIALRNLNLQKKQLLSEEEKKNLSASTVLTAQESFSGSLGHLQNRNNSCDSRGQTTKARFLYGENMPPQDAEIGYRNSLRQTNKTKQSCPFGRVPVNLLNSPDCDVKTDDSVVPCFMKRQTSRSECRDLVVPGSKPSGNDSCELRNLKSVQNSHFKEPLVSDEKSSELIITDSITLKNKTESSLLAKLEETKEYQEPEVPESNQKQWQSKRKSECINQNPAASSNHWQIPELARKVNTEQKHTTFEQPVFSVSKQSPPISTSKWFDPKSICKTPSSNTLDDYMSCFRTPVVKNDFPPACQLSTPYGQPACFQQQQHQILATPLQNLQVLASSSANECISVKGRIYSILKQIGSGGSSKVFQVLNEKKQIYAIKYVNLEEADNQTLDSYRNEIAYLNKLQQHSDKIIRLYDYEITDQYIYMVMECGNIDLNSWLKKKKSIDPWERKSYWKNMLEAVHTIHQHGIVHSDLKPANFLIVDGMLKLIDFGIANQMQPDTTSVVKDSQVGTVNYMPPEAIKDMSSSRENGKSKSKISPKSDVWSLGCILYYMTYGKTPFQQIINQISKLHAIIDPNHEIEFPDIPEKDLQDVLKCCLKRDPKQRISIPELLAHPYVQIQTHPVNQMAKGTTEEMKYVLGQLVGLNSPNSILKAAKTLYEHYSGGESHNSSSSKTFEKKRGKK
Procedure: (§1) The cells were treated with compounds or vehicle for indicated time points and lysed in RIPA lysis buffer (50 mM HEPES pH 7.9, 140 mM NaCl, 1 mM EDTA, 1% Triton X-100, 0.1% SDS, 0.1% sodium deoxycholate) containing protease and phosphatase inhibitors (Sigma) for 20 min at 4 °C. Cell lysates were cleared by centrifugation, and protein concentration was determined with bicinchoninic acid assay. Equal amounts of protein per sample were separated by Bis-Tris-PAGE and transferred to PVDF membranes (Millipore). The membranes were blocked with 5% (w/v) nonfat dry milk in TBS-T [20 mM Tris–HCl, pH 7.5, 150 mM NaCl, 0.1% (v/v) Tween-20] for 1 h at room temperature and incubated with primary antibody at 4 °C overnight. Visualization was carried out using horseradish peroxidase (HRP)-labeled secondary antibodies and detected using a chemiluminescent HRP substrate (Millipore) in LAS3000 or LAS4000 mini (Fujifilm). Vinculin, GAPDH, or B-actin were used as a loading control. The loading control was probed along with the target antibody by cutting the membrane. For targets with similar molecular weights, the samples were run in duplicate and probed with their respective loading controls, although only one control was shown in the figure for all targets. The signal was quantified using ImageJ or Image Studio Lite against the corresponding loading controls. Antibodies used in this study were as follows: Aurora A/AIK (Cell Signaling Technology, 3092), Aurora B (Bethyl Laboratories, A300–431A), TTK (Santa Cruz Biotechnology, sc-56968), GAPDH (Cell Signaling Technology, 2118), B-Actin (Sigma, A5441), and Vinculin (Sigma, V9131).
(§2) α GAPDH α Vinculin α B-Actin
(§3) Figure S2: Cellular degradation studies of SF1-based compounds. […]
GAPDH was used as a loading control. (E-
(§4) Immunoblots of TTK and AURKB. Naive MV4-11 cells were treated with indicated concentration of 44 or 47 G)
(§5) (E), 18 (F), and 14 or 20 (G) for 6 h and compared with vehicle treated cells. […]
(§6) All HiBiT data are represented as a mean ±s.d. from n=2 replicates. […]

[2] = tested on: MV4-11 cells (naive); test: alamarBlue cell viability assay; format: cell-based, human; settings: 72 h treatment, MV4-11 cells (naive); read-out: EC50 (concentration that decreases cell viability by 50%)
Summary of the method: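 Cells exposed to compound concentration series or vehicle for 72 h (unless otherwise stated); alamarBlue added a few hours before end point. Read-out by fluorescence (ex 550/em 600 nm) or absorbance (570 nm, 600 nm reference).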

[3] = biological target: T2, TTK (MV4-11^HiBiT-TTK cells) (Homo sapiens, UniProt P33981); test: HiBiT assay, TTK degradation; format: cell-based; parameters: key to Dmax (maximal degradation) TTK: compounds with degradation less than 15% reported as “inactive”; settings: 6 h treatment, MV4-11^HiBiT-TTK cells; for DC50: read-out: DC50 (half-maximal degradation concentration) TTK
T2 construct: expressed in transfected cells; host or cells: MV4-11, lentiviral transduction (pRRL-PGK-HiBiT entry vector)
T2 sequence (P33981 1-857): T1 sequence (P33981 1-857)
Summary of the method: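 MV4-11 lines stably expressing HiBiT-tagged AURKA, AURKB or TTK (lentiviral) were treated with serial compound dilutions for the indicated times. Remaining tagged protein was read by lytic HiBiT luminescence, and DC50 was fitted with a four-parameter dose–response equation using concentrations showing sigmoidal behaviour.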

[4] = biological target: T3, AURKB (Homo sapiens, UniProt Q96GD4); test: Immunoblot of AURKB in naive MV4-11 cells; format: cell-based; settings: 6 h, 10 µM
T3 construct: endogenous in cells; host or cells: naive MV4-11
Procedure: as §1, §2, §3, §4, §5, §6

T3 sequence (Q96GD4 whole entry): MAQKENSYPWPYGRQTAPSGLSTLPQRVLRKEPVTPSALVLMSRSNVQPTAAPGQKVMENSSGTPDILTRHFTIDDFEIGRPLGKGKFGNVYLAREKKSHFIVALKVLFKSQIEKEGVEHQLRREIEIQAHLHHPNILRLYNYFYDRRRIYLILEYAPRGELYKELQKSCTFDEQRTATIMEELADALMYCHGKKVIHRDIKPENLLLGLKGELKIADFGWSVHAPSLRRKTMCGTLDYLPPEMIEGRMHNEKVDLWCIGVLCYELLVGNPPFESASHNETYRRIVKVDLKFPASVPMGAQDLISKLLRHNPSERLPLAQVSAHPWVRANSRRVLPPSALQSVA

Structure (SMILES)	relative TTK level (immunoblot quantification, vehicle = 1.00) ([1]; 10 µM)	EC50 [2] [nM]	Dmax (maximal degradation) TTK [3]	DC50 [3] [nM]	relative AURKB level (immunoblot quantification, vehicle = 1.00) [4]	relative TTK level (immunoblot quantification, vehicle = 1.00) ([1]; 0.01 µM)	relative TTK level (immunoblot quantification, vehicle = 1.00) ([1]; 1 µM)	DC50 (half-maximal degradation concentration) TTK [3]
CC(C)S(=O)(=O)c1ccccc1Nc1nc(Nc2ccc(N3CCN(C(=O)CCCC(=O)Nc4cccc5c4C(=O)N(C4CCC(=O)NC4=O)C5=O)CC3)cc2)nc2[nH]cnc12 (stereo not drawn) [Compound 14]	1.16	214	28.50%	396	0.87			
CC(C)S(=O)(=O)c1ccccc1Nc1nc(Nc2ccc(N3CCN(C(=O)CNC(=O)CCCC(=O)Nc4cccc5c4C(=O)N(C4CCC(=O)NC4=O)C5=O)CC3)cc2)nc2[nH]cnc12 (stereo not drawn) [Compound 20]		577	48.33%	281				
Cc1ncsc1-c1ccc(CNC(=O)[C@@H]2C[C@@H](O)CN2C(=O)[C@@H](NC(=O)COCCOCC(=O)N2CCN(c3ccc(Nc4nc(Nc5ccccc5S(=O)(=O)C(C)C)c5nc[nH]c5n4)cc3)CC2)C(C)(C)C)cc1 [Compound 49]		2560	47.40%	5710				
Cc1ncsc1-c1ccc(CNC(=O)[C@@H]2C[C@@H](O)CN2C(=O)[C@@H](NC(=O)CCCC(=O)N2CCN(c3ccc(Nc4nc(Nc5ccccc5S(=O)(=O)C(C)C)c5nc[nH]c5n4)cc3)CC2)C(C)(C)C)cc1 [Compound 44]	0.67	1160	inactive		0.79	1.00	1.00	– (compounds with degradation less than 25% were not calculated and reported as “–”)
